Tested on: Her2
Test: Degradation of Her2 in BT-474 cells, Western blot (Method 1)
Assay type: cell-based, human
Details: 0.5 μM, overnight
Description: Human high-Her2 breast carcinoma BT474 (HTB-20), SK-BR-3 (HTB-30) and MCF-7 breast carcinoma (HTB-22) from American Type Culture Collection, VA, USA were grown in Dulbecco's modified Eagle's medium with 4 mM L-glutamine and antibiotics (100 IU/ml penicillin and 100 ug/ml streptomycine; GibcoBRL). To obtain exponential cell growth, cells were trypsinized, counted and seeded at a cell density of 0.5×10^6 cells/ml regularly, every 3 days. All experiments were performed on day 1 after cell passage.
BT-474 cells are treated with 0.5 μM, 2 μM, or 5 μM of 17AAG (a positive control) or 0.5 μM, 2 μM, or 5 μM of a compound of the invention overnight in DMEM medium. After treatment, each cytoplasmic sample is prepared from 1×10^6 cells by incubation of cell lysis buffer (#9803, cell Signaling Technology) on ice for 10 minutes. The resulting supernatant used as the cytosol fractions is dissolved with sample buffer for SDS-PAGE and run on a SDS-PAGE gel, blotted onto a nitrocellulose membrane by using semi-dry transfer. Non-specific binding to nitrocellulose is blocked with 5% skim milk in TBS with 0.5% Tween at room temperature for 1 hour, then probed with anti-Her2/ErB2 mAb (rabbit IgG, #2242, Cell Signaling) and anti-Tubulin (T9026, Sigma) as housekeeping control protein. […]

SMILES: C=CCNC1=C2C[C@@H](C)C[C@H](OC)[C@H](O)[C@@H](C)/C=C(\C)[C@H](OC(N)=O)[C@@H](OC)/C=C\C=C(/C)C(=O)NC(=CC1=O)C2=O [Compound 17AAG, 17-allylamino-17-demethoxygeldanamycin]
- degradation of Her2: partial degradation of Her2
